Measurements taken from patent publication US5698401A, “Use of nuclear magnetic resonance to identify ligands to target biomolecules” (priority 1995, dated 1997).
Read-outs that look alike come from different tables or passages of the source.

Key:
[1] = target: T1, catalytic domain of stromelysin (Homo sapiens, UniProt P08254); assay: NMR binding (2D 15N/1H HSQC) to the catalytic domain of stromelysin
T1 construct: initiating methionine (N); made in house; host or cells: E. coli BL21(DE3)/pLysS, pET3d
T1 sequence (P08254 100-273): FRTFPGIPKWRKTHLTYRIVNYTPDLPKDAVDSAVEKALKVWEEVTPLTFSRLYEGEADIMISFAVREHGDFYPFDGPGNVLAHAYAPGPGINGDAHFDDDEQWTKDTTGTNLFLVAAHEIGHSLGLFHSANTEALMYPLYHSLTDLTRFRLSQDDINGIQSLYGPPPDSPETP
Method: The catalytic domain of stromelysin was prepared in accordance with the procedures of Example 1. The protein solutions used in the screening assay contained the uniformly ^15 N-labeled catalytic domain of stromelysin (0.3 mM), acetohydroxamic acid (500 mM), CaCl2 (20 mM), and sodium azide (0.5%) in a H2 O/D2 O (9/1) TRIS buffered solution (50 mM, pH=7.0).
Two-dimensional ^15 N/^1 H NMR spectra were generated at 29° C. on a Bruker AMX500 NMR spectrometer equipped with a triple resonance probe and Bruker sample changer. The ^15 N/^1 H HSQC spectra were acquired as 80x1024 complex points using sweep widths of 2000 Hz (^15 N, t^1) and 8333 Hz (^1 H, t2). […] All NMR spectra were processed and analyzed on Silicon Graphics computers using in-house-written software. […]
Various biaryl compounds of structure I were tested for binding to stromelysin at differing concentrations. The ^15 N/^1 H spectra generated at each concentration were evaluated to quantify differences in the spectra as a function of compound concentration. A binding or dissociation constant (KD)was calculated, using standard procedures well known in the art, from those differences. […]
In a first study, binding constants were determined, both by the NMR method of the present invention, and by a prior an enzymatic assay. […] The KD values so obtained were compared to an inhibition constant KI as determined in an enzymatic assay. […]

[2] = target: T1, catalytic domain of stromelysin; assay: Enzymatic assay, cleavage of a fluorogenic substrate by stromelysin; assay type: biochemical
Method: The target molecule was the catalytic domain of stromelysin prepared in accordance with the procedures of Example 1. […] The KD values so obtained were compared to an inhibition constant KI as determined in an enzymatic assay.
The enzymatic assay measured the rate of cleavage of a fluorogenic substrate by following the fluorescence increase upon peptide cleavage which causes a separation between the fluorophore and quencher. Enzymatic activity was measured using a matrix of different concentrations of acetohydroxamic acid and biaryl compounds.
Individual compound concentration varied due to solubility and potency.
All NMR measurements were performed in the presence of 500 mM acetohydroxamic acid, except for the titration of acetohydroxamic acid itself. Dissociation constants were obtained from the dependence of the observed chemical shift changes upon added ligand. Inhibition constants were then obtained from the inhibition data using standard procedures.

Stromelysin = target: T2, Stromelysin (Homo sapiens, UniProt P08254); assay: Inhibition of degradation (autolysis) of stromelysin; assay type: biochemical; conditions: 500 mM
T2 construct: initiating methionine (N); made in house; host or cells: E. coli BL21(DE3)/pLysS, pET3d
T2 sequence (P08254 100-273): as above
Method: Studies were performed to design new ligands that bound to the catalytic domain of stromelysin. Because stromelysin undergoes autolysis, an inhibitor was sought to block the degradation of stromelysin. That inhibitor would facilitate the screening of other potential ligands that bind to other sites on the enzyme.
A variety of hydroxamic acids of the general formula R-(CO)NHOH were screened for binding to stromelysin using the procedures set forth in Example 2.

Water solubility = assay type: physicochemical

| inhibition of the degradation of the enzyme (Stromelysin) | water solubility (Water solubility) | Compound | Kd [1] [µM] | Kd ([1]; Table 3, in the presence of 500 mM acetohydroxamic acid, read-out: NMR KD) [µM] | Ki [2] [µM] |
| --- | --- | --- | --- | --- | --- |
|  |  | c1ccc(-c2ccncc2)cc1 [Compound 7] | 200 | 170 | 320 |
| inhibited the degradation of the enzyme | good water solubility | CC(=O)NO [Acetohydroxamic acid, acetohydroxamic acid] |  |  |  |
